Assay results reported in PubChem BioAssay (NCI).
Where “and” joins values, the source holds several entries; their conditions need not be identical. Equal entries are not always repeated.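 Protocol summary: plate cells (96-well), add compound at 5 concentrations, incubate 48 h, interpolate endpoints linearly. Abbreviation: GI50, concentration required for 50% inhibition of growth. TGI marks complete inhibition of growth.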

Legend:
Assay in all cases: DTP human tumour cell line panel, 48 h
ACHN renal = test system: ACHN renal
MOLT-4 leukemia = test system: MOLT-4 leukemia
MALME-3M melanoma = test system: MALME-3M melanoma
A498 renal = test system: A498 renal
PC-3 prostate = test system: PC-3 prostate
NCI-H226 lung = test system: NCI-H226 lung
EKVX NSCLC = test system: EKVX NSCLC
MDA-MB-231 breast = test system: MDA-MB-231 breast
TK-10 renal = test system: TK-10 renal
SF-539 CNS = test system: SF-539 CNS

Row | SMILES | GI50 (ACHN renal) [µM] | TGI (ACHN renal) | GI50 (MOLT-4 leukemia) [µM] | TGI (MOLT-4 leukemia) | GI50 (MALME-3M melanoma) [µM] | TGI (MALME-3M melanoma) | GI50 (A498 renal) | TGI (A498 renal) | GI50 (PC-3 prostate) | TGI (PC-3 prostate) | GI50 (NCI-H226 lung) [µM] | TGI (NCI-H226 lung) [µM] | GI50 (EKVX NSCLC) | TGI (EKVX NSCLC) | GI50 (MDA-MB-231 breast) | TGI (MDA-MB-231 breast) | GI50 (TK-10 renal) | TGI (TK-10 renal) | GI50 (SF-539 CNS) [µM] | TGI (SF-539 CNS) [µM]
1 | O=C(CCN1CCN(c2cnc3ccccc3n2)CC1)c1csc2ccccc12 | 19.5 | 42.1 µM | 35.7 | > 100 µM | 24.9 | 69.1 µM | 47.4 µM | > 100 µM | 28.1 µM | > 100 µM | 35.7 | > 100 | 36 µM | > 100 µM | 26 µM | 63 µM | 19.5 µM | 42.6 µM | 29.3 | 77.9
2 | CCc1c2c(nc3cc4c(cc13)OCO4)-c1cc3c(c(=O)n1C2)COC(=O)[C@]3(O)CC | < 0.001 | 0.146 µM and 0.0376 µM | < 0.001 | 0.0106 µM and 0.0339 µM | 0.289 | > 100 µM | 0.0097 µM and 0.0397 µM | 0.428 µM and 0.834 µM | 0.277 µM and 0.122 µM | > 100 µM | < 0.001 | 0.227 | 4.31 µM and 1.8 µM | > 100 µM | 0.0726 µM and 0.167 µM | > 100 µM | 0.294 µM and 1.91 µM |  | < 0.001 | 0.0505
3 | COc1ccc(C(=S)N2CCN(c3cccc(Cl)c3)CC2)cc1 | > 100 | > 100 µM | > 100 | > 100 µM | > 100 | > 100 µM | > 100 µM | > 100 µM | 38.6 µM | > 100 µM | > 100 | > 100 | 91.7 µM | > 100 µM | 43.9 µM | > 100 µM | > 100 µM | > 100 µM | > 100 | > 100
4 | NC(N)=N/N=C(/c1ccccc1)c1ccc(F)cc1 | 0.75 | 16.4 µM | 2.67 | > 38.1 µM | 0.368 | 22 µM | 0.299 µM | 3.28 µM | 0.382 µM | 18.8 µM | 1.06 | 14.5 | 0.65 µM | 36.5 µM | 0.649 µM | 14 µM | 0.506 µM | 18.4 µM | 0.271 | 0.902
5 | CN(C)CC(=O)N1CCC(c2ccc(NC(=O)c3ncc(C#N)[nH]3)c(C3=CCCCC3)c2)CC1 | 5.42 | 17.8 µM | 3.72 | 12.7 µM | 4.3 | 16.1 µM | 9.71 µM | 22.4 µM | 8.38 µM | 25.5 µM | 11.3 | 24.2 | 14.1 µM | 28 µM | 8.31 µM | 23.2 µM | 7.86 µM | 20.6 µM | 3.5 | 15
6 | Cc1nn(-c2ccc(F)cc2)c2ncnc(Nc3ccc(NC(=O)Nc4ccc(Cl)c(C(F)(F)F)c4)cc3)c12 | 1.75 | 5.62 µM | 2.67 | 22.2 µM | 1.76 | 4.21 µM | 2.6 µM | 7.93 µM | 1.03 µM | 3.98 µM | 2.31 | 5.99 | 2.78 µM | 10.8 µM | 2.03 µM | 5.55 µM | 2.85 µM | 10.4 µM | 1.46 | 3.08
7 | Fc1cccc(COc2ccc(Nc3ncncc3C#Cc3ccccc3)cc2Cl)c1 | > 25 | > 25 µM | > 25 | > 25 µM | > 25 | > 25 µM | > 17.1 µM | > 25 µM | > 25 µM | > 25 µM | > 25 | > 25 | 8.26 µM | > 25 µM | > 25 µM | > 25 µM | 15 µM | > 25 µM | > 25 | > 25
8 | C[C@@H]1CC[C@@H]2[C@@H]1[C@H](OC(=O)/C=C/c1ccccc1)[C@]1(c3ccccc3)C[C@@H](OC(=O)CO)[C@@]2(C)O1 | 0.179 | 0.597 µM | 6.86 | 33.9 µM | 16.5 | 31.4 µM | 0.189 µM | 0.585 µM | 3.67 µM | 18.9 µM | 13.2 | 29 | 12.6 µM | 35.8 µM | 16.5 µM | 34.2 µM | 18.2 µM | 41.8 µM | 14.6 | 28.3
9 | N#Cc1c(NC(=O)c2cccc(C(F)(F)F)c2)sc2c1CCC(=O)C2 | 0.327 | 0.985 µM | 0.35 | > 32.2 µM | 0.326 | 1.12 µM | 1.71 µM | 5.5 µM | 0.292 µM | 1.41 µM | 1.55 | 5.02 | 1.67 µM | 4.26 µM | 1.39 µM | 3.31 µM | 0.543 µM | 2.34 µM | 0.329 | 1.23
10 | Clc1ccccc1C(c1ccccc1)(c1ccccc1)n1ccnc1 | 2.87 | 13.1 µM and 25.6 µM | 1.96 | 6.87 µM and 57.7 µM | 1.74 | 7.24 µM and 16.9 µM | 2.15 µM | 6.02 µM and 43.8 µM | 1.67 µM | 12.4 µM and 20.2 µM | 3.13 | 17.7 | 2.41 µM | 13.7 µM and 23.7 µM | 2.13 µM | 6.72 µM and 38.6 µM | 3.88 µM | 13.5 µM and 30.9 µM | 3.22 | 11.1
11 | Cc1cc2nc3c4cc(Cl)ccc4n(CCN(C)C)c3nc2cc1C | 0.66 | 2.01 µM | 0.586 | 3.44 µM | 1.72 | 3.33 µM | 1.29 µM | 2.63 µM | 1.65 µM | 4.74 µM | 1.98 | 4.24 | 2.45 µM | 6.77 µM | 1.6 µM | 4.81 µM | 2.51 µM | 5.74 µM | 1.55 | 2.94
12 | O=C(c1cccs1)c1c(C(F)(F)F)n([O-])c2ccccc2[n+]1=O | 0.417 | 1.09 µM | 2.32 | 4.19 µM | 0.85 | 2.53 µM | 0.79 µM | 2.4 µM | 0.448 µM | 2.24 µM | 1.05 | 3.12 | 0.798 µM | 1.55 µM | 0.639 µM | 1.53 µM | 1.6 µM | 5.43 µM | 1.11 | 3.42
